One assay deals with T1, LCAT (Homo sapiens, UniProt P04180).
T1 construct: The obtained fraction was dialyzed against phosphate-buffered saline (pH 7.4) and used as an enzyme source and an acceptor for LCAT; from tissue; host or cells: HDL3 fraction (1.125 < specific gravity < 1.210 g/mL) of plasma from a healthy person
T1 sequence (P04180 25-440): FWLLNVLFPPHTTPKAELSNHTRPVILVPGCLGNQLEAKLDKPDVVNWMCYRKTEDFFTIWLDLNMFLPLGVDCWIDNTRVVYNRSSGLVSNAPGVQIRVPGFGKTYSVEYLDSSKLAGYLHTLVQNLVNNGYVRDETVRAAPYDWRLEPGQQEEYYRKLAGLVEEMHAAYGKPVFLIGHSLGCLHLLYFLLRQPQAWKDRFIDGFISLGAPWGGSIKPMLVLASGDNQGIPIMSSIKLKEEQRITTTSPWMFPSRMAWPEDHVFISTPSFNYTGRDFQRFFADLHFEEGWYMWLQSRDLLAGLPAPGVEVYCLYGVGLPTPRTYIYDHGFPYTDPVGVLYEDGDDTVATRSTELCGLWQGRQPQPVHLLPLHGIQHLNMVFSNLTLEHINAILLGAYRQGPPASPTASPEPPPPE
The assay is described as follows: LCAT activity measurement (in vitro), [14C]cholesterol esterification with HDL3 fraction. Type of assay: biochemical. The settings on record: HDL3 fraction from plasma of a healthy person as enzyme source and acceptor; 37° C., approximately 16 hours; relative to sample without test drug; read-out: EC50 of LCAT activation. On the procedure: A fraction composed of HDL3 (1.125 <specific gravity <1.210 g/mL) was obtained from the plasma of a healthy person by density gradient centrifugation. The obtained fraction was dialyzed against phosphate-buffered saline (pH 7.4) and used as an enzyme source and an acceptor for LCAT. Each test drug was prepared by dissolution in dimethyl sulfoxide. [^14C]Cholesterol containing DTNB (Ellman's reagent, final concentration: 0.5 mM), mercaptoethanol (final concentration: 12.5 mM), and 0.6% bovine serum albumin was added to phosphate-buffered saline (pH 7.4) containing 1 mg/mL HDL3, and the test drug was further added thereto at varying concentrations to adjust the whole amount to 80 μL. This mixture was incubated at 37° C. for approximately 16 hours. Then, a mixed solution of hexane and isopropanol (mixing ratio=3:2) was added thereto to stop the reaction. After stirring, the hexane layer was collected, and this layer was evaporated to dryness. A chloroform solution (concentration: 10 mg/mL) was added thereto, and the mixture was spotted onto a thin-layer silica gel plate and developed using a mixed solution of hexane, diethyl ether, and ethyl acetate (mixing ratio=85:15:2). The radioactivity of a portion corresponding to cholesterol oleate was measured using an imaging analyzer BAS-2500 (manufactured by Fujifilm Corp.). A sample non-supplemented with the test drug was similarly treated and assayed. The EC50 value of LCAT activation was calculated according to the expression given below relative to LCAT activity in the sample non-supplemented with the test drug.
[formula] • wherein X represents the logarithm of the concentration of the test drug; • Y represents the responsiveness (LCAT activity) of the test drug; • Top represents the maximum value (maximum plateau); • Bottom represents the minimum value (minimum plateau); and • EC50 represents the 50% effective concentration.

Another assay has as its system cynomolgus monkey. In words: Drug efficacy test in cynomolgus monkeys (plasma HDL cholesterol). Type of assay: in vivo. To be noted: Macaca fascicularis, oral, single dose of 10 mg/kg, from AUC before administration and 24 hours after administration, read-out: Rate of increase in HDL level after administration of single dose. The protocol:
Each test drug was dissolved in a propylene glycol (Sigma-Aldrich Corp.)-Tween 80 (Sigma-Aldrich Corp.) mixed solution [4/1 (v/v)] or a 0.5% (w/v) methylcellulose aqueous solution, and the solution was orally administered to a cynomolgus monkey for 1 or 7 days. At day 1 or 7 of the administration period, blood was collected before administration and after administration, and plasma was obtained. The content of cholesterol in the plasma was measured using a commercially available assay kit (Cholesterol-E Wako, Wako Pure Chemical Industries, Ltd.). The lipoprotein profile was analyzed by HPLC (column: LipopropakXL, manufactured by Tosoh Corp.). The contents of HDL cholesterol and non-HDL cholesterol were calculated according to the following calculation expression: Content of HDL cholesterol=Content of cholesterol in the plasma×(Peak area of HDL cholesterol/Total sum of peaks) Content of non-HDL cholesterol=Content of cholesterol in the plasma×(Peak area of non-HDL cholesterol/Total sum of peaks)

The structures appear in SMILES notation.

For orientation: EC50 means the midpoint of the concentration-response curve.

`O=C1Nc2[nH]nc(C3CCN(c4ccc(Cl)cn4)CC3)c2[C@@H](C(F)(F)F)[C@H]1O` (single isomer, unassigned) [Example 22, (+)-cis-3-[1-(5-Chloropyridin-2-yl)piperidin-4-yl]-5-hydroxy-4-(trifluoromethyl)-1,4,5,7-tetrahydro-6H-pyrazolo[3,4-b]pyridin-6-one]: at LCAT, the EC50 came to 0.032 µM. Further, the change in vivo at 10 mg/kg in the assay on cynomolgus monkey is 581%.

For the molecule `O=C1Nc2[nH]nc(C3CCN(c4cc(C(F)(F)F)ncn4)CC3)c2[C@@H](C(F)(F)F)[C@H]1O` (single isomer, unassigned) [Example 30, (+)-cis-5-Hydroxy-4-(trifluoromethyl)-3-{1-[6-(trifluoromethyl)pyrimidin-4-yl]piperidin-4-yl}-1,4,5,7-tetrahydro-6H-pyrazolo[3,4-b]pyridin-6-one], the EC50 on LCAT was 0.063 µM. Moreover, the change in vivo at 10 mg/kg in the assay with cynomolgus monkey turned out to be 290%.

In the case of `O=C1Nc2[nH]nc(C3CCN(c4cnc(C(F)(F)F)cn4)CC3)c2C(O)(C(F)(F)F)C1O` (single isomer, unassigned; (+)) [Example 34, (+)-4,5-Dihydroxy-4-(trifluoromethyl)-3-{1-[5-(trifluoromethyl)pyrazin-2-yl]piperidin-4-yl}-1,4,5,7-tetrahydro-6H-pyrazolo[3,4-b]pyridin-6-one], the EC50 at LCAT was 0.004 µM. In the assay on cynomolgus monkey, the change in vivo at 10 mg/kg was 590%.

For the molecule `O=C1Nc2[nH]nc(C3CCN(c4ccc(C(F)(F)F)cn4)CC3)c2C(O)(C(F)(F)F)C1O` (single isomer, unassigned; (+)) [Example 35, (+)-4,5-Dihydroxy-4-(trifluoromethyl)-3-{1-[5-(trifluoromethyl)pyridin-2-yl]piperidin-4-yl}-1,4,5,7-tetrahydro-6H-pyrazolo[3,4-b]pyridin-6-one], at LCAT, the EC50 was found to be 0.007 µM. For the same molecule, the change in vivo at 10 mg/kg with cynomolgus monkey was determined as 482%.

The record behind these values is patent US9796709B2, “5-hydroxy-4-(trifluoromethyl)pyrazolopyridine derivative” (Daiichi Sankyo Company, Limited, priority 2013, dated 2017).
